Test results published in article PMC12647645, “Structural interactions of BWC0977 with Klebsiella pneumoniae topoisomerase IV and biochemical basis of its broad-spectrum activity” (Communications Biology, 2025).
Values after ≈ are worked out from the molar mass of the structure shown. Values joined by “and” are separate entries in the source; they are usually repeats but may differ in a detail not shown here. Identical values can stand only once.

Columns and labels:
E. coli topoisomerase IV = target: T1, E. coli topoisomerase IV (Escherichia coli, UniProt P0AFI2+P20083); assay: biochemical; assay type: biochemical; conditions: E. coli topo IV, source data Fig 2A
T1 construct: purchased Inspiralis
T1 sequence (P20083 whole entry): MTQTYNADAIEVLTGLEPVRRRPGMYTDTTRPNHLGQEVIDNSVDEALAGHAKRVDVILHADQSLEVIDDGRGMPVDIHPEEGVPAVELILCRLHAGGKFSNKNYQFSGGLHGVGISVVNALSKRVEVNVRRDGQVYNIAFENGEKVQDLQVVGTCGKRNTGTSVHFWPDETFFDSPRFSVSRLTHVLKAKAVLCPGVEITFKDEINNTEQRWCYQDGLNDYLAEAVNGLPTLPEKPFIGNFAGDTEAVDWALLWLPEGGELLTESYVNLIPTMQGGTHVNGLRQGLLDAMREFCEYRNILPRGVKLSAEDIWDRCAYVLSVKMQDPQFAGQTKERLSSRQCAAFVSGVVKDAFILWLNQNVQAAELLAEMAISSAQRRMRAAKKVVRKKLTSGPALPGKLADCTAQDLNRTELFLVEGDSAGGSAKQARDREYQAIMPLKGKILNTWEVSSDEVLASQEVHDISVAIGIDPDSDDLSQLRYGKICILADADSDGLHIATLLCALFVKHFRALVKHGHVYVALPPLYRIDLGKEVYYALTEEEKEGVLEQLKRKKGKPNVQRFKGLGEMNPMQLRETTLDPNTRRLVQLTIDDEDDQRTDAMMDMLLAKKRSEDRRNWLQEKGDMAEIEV
T1 sequence (P0AFI2 whole entry): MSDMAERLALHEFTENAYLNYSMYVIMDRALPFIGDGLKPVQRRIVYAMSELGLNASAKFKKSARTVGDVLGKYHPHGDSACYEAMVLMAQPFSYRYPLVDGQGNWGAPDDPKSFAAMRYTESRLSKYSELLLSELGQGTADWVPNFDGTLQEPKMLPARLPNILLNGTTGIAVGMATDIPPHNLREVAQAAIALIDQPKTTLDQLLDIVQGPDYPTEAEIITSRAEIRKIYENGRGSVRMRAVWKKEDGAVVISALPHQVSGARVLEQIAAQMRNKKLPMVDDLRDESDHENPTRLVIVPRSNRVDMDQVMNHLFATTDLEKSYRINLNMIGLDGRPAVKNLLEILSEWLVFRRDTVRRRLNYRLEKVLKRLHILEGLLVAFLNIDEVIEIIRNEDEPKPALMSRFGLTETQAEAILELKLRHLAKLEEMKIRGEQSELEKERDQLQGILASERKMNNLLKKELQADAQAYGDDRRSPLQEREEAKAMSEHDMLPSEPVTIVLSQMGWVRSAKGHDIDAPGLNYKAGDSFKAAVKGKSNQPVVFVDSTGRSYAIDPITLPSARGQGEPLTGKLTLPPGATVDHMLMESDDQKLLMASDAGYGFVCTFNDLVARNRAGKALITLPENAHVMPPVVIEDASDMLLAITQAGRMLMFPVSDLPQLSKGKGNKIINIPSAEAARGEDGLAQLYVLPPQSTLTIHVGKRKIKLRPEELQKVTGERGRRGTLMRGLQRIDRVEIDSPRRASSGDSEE

[1] = target: P. aeruginosa topoisomerase IV (Pseudomonas aeruginosa, UniProt Q9HUJ8+Q9HUK1); assay: Topoisomerase IV decatenation assay, P. aeruginosa; assay type: biochemical; conditions: for Topo IV decatenation inhibition response: P. aeruginosa topo IV
Procedure: (§1) Topoisomerase IV decatenation reactions were performed using 2.5 nM E. coli enzyme and 60 ng kinetoplast DNA (kDNA) in an assay buffer containing 50 mM HEPES-KOH (pH 7.6), 100 mM potassium glutamate, 10 mM magnesium acetate, 10 mM DTT, 1 mM ATP, and 50 μg/mL albumin. Assays with P. aeruginosa topoisomerase IV (3 nM) were conducted in a similar buffer but with 50 mM HEPES-KOH (pH 7.9), 100 mM potassium glutamate, 6 mM magnesium acetate, 6 mM DTT, 1 mM ATP, 2 mM spermidine, and 50 μg/mL albumin. For S. aureus topoisomerase IV assay, the reactions contained 4 nM enzyme in an assay buffer composed of 50 mM Tris-HCl (pH 7.5), 5 mM MgCl₂, 5 mM DTT, 1.5 mM ATP, 350 mM potassium glutamate, and 0.05 mg/mL albumin. The procedures followed were consistent with those used in the supercoiling assays. Decatenated minicircles were resolved on 0.8% agarose gels, while the kDNA substrate remained in the wells. Gels were stained with 0.8 μg/mL ethidium bromide solution for 10 min, followed by destaining. DNA bands were visualized using a gel documentation system, and compound inhibition analysis was carried out using the same procedures described for the supercoiling assays.

[2] = target: S. aureus topoisomerase IV (Staphylococcus aureus, UniProt P0C1S7+P0C1U9); assay: biochemical; conditions: source data Fig 2C; for Topo IV decatenation inhibition response: S. aureus topo IV
Procedure: as §1, with “Assays” for “Topoisomerase IV decatenation reactions were performed using 2.5 nM E. coli enzyme and 60 ng kinetoplast DNA (kDNA) in an assay buffer containing 50 mM HEPES-KOH (pH 7.6), 100 mM potassium glutamate, 10 mM magnesium acetate, 10 mM DTT, 1 mM ATP, and 50 μg/mL albumin. Assays”

A. baumannii ATCC 19606 = assay: In vitro spontaneous resistance frequency; assay type: cell-based; conditions: colonies selected at 4× MIC of the same compound
Procedure: (§2) Spontaneous resistance frequencies to BWC0977 were evaluated in E. coli ATCC 25922, P. aeruginosa ATCC 27853, and A. baumannii ATCC 19606. Mid-logarithmic phase cultures (~10^9 CFU/mL) were plated onto Luria-Bertani agar containing BWC0977 at 4×, 8×, and 16× the respective MICs. Plates were incubated at 37 °C for 24–36 h, and resistance frequencies were estimated by counting colony-forming units (CFUs) on the drug-containing plates. MICs of the isolated colonies were determined, and the gyrA, gyrB, parC, and parE genes were sequenced to assess for target-site mutations.

E. coli ATCC 25922 = assay: In vitro spontaneous resistance frequency; assay type: cell-based; conditions: 4× MIC
Procedure: as §2

K. pneumoniae = conditions: ref 6 (Hameed P et al., 2024); cited from earlier work
A. baumannii = system: A. baumannii; parameters: method as in ref 6 (Hameed P et al., 2024); conditions: ref 6 (Hameed P et al., 2024); cited from earlier work
P. aeruginosa = system: P. aeruginosa; parameters: method as in ref 6 (Hameed P et al., 2024); conditions: ref 6 (Hameed P et al., 2024); cited from earlier work
[3] = target: K. pneumoniae fusion-truncated topoisomerase IV (ParE30-(Glu-Ser)-ParC55) (Klebsiella pneumoniae); assay: crystal structure; ternary complex of ParEC core dimer, 26-bp DNA duplex and BWC0977 (23 uM ParEC core: 28 uM dsDNA: 200 uM BWC0977); sitting-drop vapor diffusion at 20 °C, 17% PEG 3350, 0.1 M sodium formate, 100 mM Bis-Tris propane pH 8.5; 3.05 Å
[4] = target: ParEC core (ParE-ES-ParC fusion, topoisomerase IV) (Klebsiella pneumoniae, UniProt A6TE19 400-631+=ES+A6TE12:1-488, internal_change); assay: X-ray crystallography (3.05 Å); BWC0977 (one molecule intercalated between DNA bases +2 and +3); Crystallization conditions not in material; protein in 20 mM Tris-HCl pH 7.5, 100 mM NaCl, 2 mM TCEP (6 mg/mL); DNA in nuclease-free water; conditions: protein: recombinant; tags: C-terminal His6; chain copies: 2; blunt; self-complementary, 2 copies of the strand

O=C(O)c1cn(C2CC2)c2cc(N3CCNCC3)c(F)cc2c1=O [Ciprofloxacin, reference compound]
Topo IV decatenation inhibition response (E. coli topoisomerase IV; compound 2.34375 μM, 2.34375 µM): 0
Topo IV decatenation inhibition response (E. coli topoisomerase IV; compound 4.6875 μM, 4.6875 µM): 17.91 and 12.76
inhibition at 4.6875 µM (E. coli topoisomerase IV; compound 4.6875 μM, read-out: Topo IV decatenation inhibition response): 12.2%
Topo IV decatenation inhibition response (E. coli topoisomerase IV; compound 9.375 μM, 9.375 µM): 51.63 and 50.29
inhibition at 9.375 µM (E. coli topoisomerase IV; compound 9.375 μM, read-out: Topo IV decatenation inhibition response): 43.7%
Topo IV decatenation inhibition response (E. coli topoisomerase IV; compound 18.75 μM, 18.75 µM): 65.07 and 61.86
inhibition at 18.75 µM (E. coli topoisomerase IV; compound 18.75 μM, read-out: Topo IV decatenation inhibition response): 76.9%
Topo IV decatenation inhibition response (E. coli topoisomerase IV; compound 37.5 μM, 37.5 µM): 82.71 and 68.2 and 60.49
Topo IV decatenation inhibition response (E. coli topoisomerase IV; compound 75 μM, 75 µM): 75.94 and 67.64
inhibition at 75 µM (E. coli topoisomerase IV; compound 75 μM, read-out: Topo IV decatenation inhibition response): 84.2%
Topo IV decatenation inhibition response (E. coli topoisomerase IV; compound 150 μM, 150 µM): 82.92 and 70.66 and 58.85
IC50 [1]: 31.2 µM
Topo IV decatenation inhibition response ([1]; compound 0.293 μM, source data Fig 2B, 0.293 µM): 3.42
Topo IV decatenation inhibition response ([1]; compound 9.375 μM, source data Fig 2B, 9.375 µM): 6.96
Topo IV decatenation inhibition response ([1]; compound 37.5 μM, source data Fig 2B, 37.5 µM): 41.68 and 65.61
Topo IV decatenation inhibition response ([1]; compound 75 μM, source data Fig 2B, 75 µM): 53.28 and 77.23
Topo IV decatenation inhibition response ([1]; compound 150 μM, source data Fig 2B, 150 µM): 73.28
inhibition at 0.293 µM ([1]; read-out: Topo IV decatenation inhibition response, P. aeruginosa topo IV, compound 0.293 μM, source data Fig 2B): 3.54%
inhibition at 9.375 µM ([1]; read-out: Topo IV decatenation inhibition response, P. aeruginosa topo IV, compound 9.375 μM, source data Fig 2B): 4.24%
inhibition at 150 µM ([1]; read-out: Topo IV decatenation inhibition response, P. aeruginosa topo IV, compound 150 μM, source data Fig 2B): 58.3%
Topo IV decatenation inhibition response ([2]; compound 0.823 μM, 0.823 µM): 25.54
Topo IV decatenation inhibition response ([2]; compound 2.469 μM, 2.469 µM): 28.07
Topo IV decatenation inhibition response ([2]; compound 7.407 μM, 7.407 µM): 38.66
Topo IV decatenation inhibition response ([2]; compound 22.222 μM, 22.222 µM): 96.26
Topo IV decatenation inhibition response ([2]; compound 66.67 μM, 66.67 µM): 92.59
Topo IV decatenation inhibition response ([2]; compound 200 μM, 200 µM): 98.71
inhibition at 0.823 µM ([2]; read-out: Topo IV decatenation inhibition response, S. aureus topo IV, compound 0.823 μM): 21.1%
inhibition at 2.469 µM ([2]; read-out: Topo IV decatenation inhibition response, S. aureus topo IV, compound 2.469 μM): 31.3%
inhibition at 7.407 µM ([2]; read-out: Topo IV decatenation inhibition response, S. aureus topo IV, compound 7.407 μM): 27.1%
inhibition at 22.222 µM ([2]; read-out: Topo IV decatenation inhibition response, S. aureus topo IV, compound 22.222 μM): 99.1%
inhibition at 66.67 µM ([2]; read-out: Topo IV decatenation inhibition response, S. aureus topo IV, compound 66.67 μM): 97.3%
inhibition at 200 µM ([2]; read-out: Topo IV decatenation inhibition response, S. aureus topo IV, compound 200 μM): 99%
MIC increase of resistant colonies (A. baumannii ATCC 19606): 4- to 32 fold
resistance frequency (E. coli ATCC 25922): 5 × 10^−9
MIC90 against diverse global isolates (K. pneumoniae): > 32 µg/mL
MIC90 against diverse global isolates (A. baumannii): > 32 µg/mL
MIC90 against diverse global isolates (P. aeruginosa): 16 µg/mL (≈ 48.3 µM)

K. pneumoniae fusion-truncated topoisomerase IV (ParE30-(Glu-Ser)-ParC55) (enzyme)
stoichiometry N [3]: 2

B1: 26-bp palindromic DNA homoduplex (dsDNA)
DNA 1: TTACGTTGTATGATCATACAACGTAA
DNA 2: TTACGTTGTATGATCATACAACGTAA
binding result [4]: binds
